Experimental findings from US20250368608A1, “SELECTIVE HDAC6 INHIBITOR” (ROYAL COLLEGE OF SURGEONS IN IRELAND, priority 2021, published 2025) are described below.

Where only a bound is given, the exact number is not on record here.

In one assay the test system is JJN3 cell line. The experiment in a line: Apoptosis assay using JJN3 cell line (annexin V/PI). Format: cell-based. Conditions: Homo sapiens, JJN-3; JJN3 cell line, 24 h of treatment. How it is done:
Apoptosis was assessed by Annexin V/propidium iodide (Biolegend, 640906, Sigma P4170) staining using LSRII Biosciences, Facscanto. Cell viability was detected by CellTiter-Glo® (My Bio, G3582) according to the manufacture's protocol. Mitochondrial membrane potential was measured by adding Tetramethylrhodamine, ethyl ester (TMRE) (Biosciences, T669) at 20 nM for 30 minutes at 37° C. and assessed by flow cytometry with FACS CANTO II. […]
The term IC50 denotes the concentration that gives 50% inhibition. `O=C(CSC1=N[C@@H]2CCCC[C@@H]2N1)N1CCCCC1` [TTC-10, cis-2-((2-oxo-2-(piperidin-1-yl)ethyl)thio)-3a,4,5,6,7,7a-hexahydro-1H-benzo[d]imidazol-3-ium chloride]: the IC50 was more than 10 µM.

Compound `CS(=O)(=O)N1CCN(C(=O)CSC2=N[C@@H]3CCCC[C@H]3N2)CC1` (racemic) [TTC-06, (±)-trans-2-((2-(4-(methylsulfonyl)piperazin-1-yl)-2-oxoethyl)thio)-3a,4,5,6,7,7a-hexahydro-1H-benzo[d]imidazol-3-ium chloride] returned an IC50 of more than 10 µM.

`O=C(CCSC1=N[C@H]2CCCC[C@@H]2N1)N1CCOCC1` [TTC-24, 3-(((3aS,7aS)-3a,4,5,6,7,7a-hexahydro-1H-benzo[d]imidazol-2-yl)thio)-1-morpholinopropan-1-one] registered an IC50 of more than 10 µM.

The compound `CCC1CCN(C(=O)CSC2=N[C@@H]3CCCC[C@H]3N2)CC1` (racemic) [TTC-28, (±)-trans-2-((2-(4-ethylpiperidin-1-yl)-2-oxoethyl)thio)-3a,4,5,6,7,7a-hexahydro-1H-benzo[d]imidazol-3-ium chloride] came in with an IC50 of more than 10 µM.

`CC(C)C1CCN(C(=O)CSC2=N[C@@H]3CCCC[C@H]3N2)CC1` (racemic) [TTC-30, (±)-trans-2-((2-(4-isopropylpiperidin-1-yl)-2-oxoethyl)thio)-3a,4,5,6,7,7a-hexahydro-1H-benzo[d]imidazol-3-ium chloride]: the IC50 is more than 10 µM.

`CS(=O)(=O)N1CCN(C(=O)CSC2=N[C@@H]3CCCC[C@@H]3N2)CC1` [TTC-12, cis-2-((2-(4-(methylsulfonyl)piperazin-1-yl)-2-oxoethyl)thio)-3a,4,5,6,7,7a-hexahydro-1H-benzo[d]imidazol-3-ium chloride] returned an IC50 of more than 10 µM.

Regarding `O=C(CSc1nc2ccccc2[nH]1)N1CCOCC1` [TTC-21, 2-((1H-benzo[d]imidazol-2-yl)thio)-1-morpholinoethan-1-one], the half-inhibitory concentration (IC50) is more than 10 µM.

`O=C(CSC1=N[C@@H]2CCCC[C@@H]2N1)N1CCOCC1` [TTC-02, cis-2-((2-morpholino-2-oxoethyl)thio)-3a,4,5,6,7,7a-hexahydro-1H-benzo[d]imidazol-3-ium chloride] showed an IC50 of more than 10 µM.

Compound `O=C(CSC1=N[C@@H]2CCCC[C@H]2N1)N1CCN(C(=O)c2ccccc2)CC1` (racemic) [TTC-41, (±)-trans-2-((2-(4-benzoylpiperazin-1-yl)-2-oxoethyl)thio)-3a,4,5,6,7,7a-hexahydro-1H-benzo[d]imidazol-3-ium chloride] displayed an IC50 of more than 10 µM.

Regarding `O=C(CSC1=N[C@@H]2CCCC[C@H]2N1)N1CCOCC1` [TTC-19, (+)-(3aR,7aR)-2-((2-morpholino-2-oxoethyl)thio)-3a,4,5,6,7,7a-hexahydro-1H-benzo[d]imidazol-3-ium chloride], the concentration for half-maximal inhibition (IC50) is more than 10 µM.

`CCN(CC)C(=O)CSC1=N[C@@H]2CCCC[C@H]2N1` (racemic) [TTC-04, (±)-trans-2-((2-(diethylamino)-2-oxoethyl)thio)-3a,4,5,6,7,7a-hexahydro-1H-benzo[d]imidazol-3-ium chloride] displayed an IC50 of more than 10 µM.

The compound `Cc1ccc(N2CCN(C(=O)CSC3=N[C@@H]4CCCC[C@H]4N3)CC2)cc1` (racemic) [TTC-38, (±)-trans-2-((2-oxo-2-(4-(p-tolyl)piperazin-1-yl)ethyl)thio)-3a,4,5,6,7,7a-hexahydro-1H-benzo[d]imidazol-3-ium chloride] returned an IC50 of more than 10 µM.

For `O=C(CSC1=N[C@H]2CCCC[C@@H]2N1)N1CCOCC1` [TTC-20, (−)-(3aS,7aS)-2-((2-morpholino-2-oxoethyl)thio)-3a,4,5,6,7,7a-hexahydro-1H-benzo[d]imidazol-3-ium chloride], the IC50 was more than 10 µM.

In turn, `O=C(CSc1ncc[nH]1)N1CCOCC1` [TTC-22, 2-((1H-imidazol-2-yl)thio)-1-morpholinoethan-1-one] gave an IC50 of more than 10 µM.

`O=C(CSC1=N[C@@H]2CCCC[C@H]2N1)N1CCC(O)CC1` (racemic) [TTC-15, (±)-trans-2-((2-(4-hydroxypiperidin-1-yl)-2-oxoethyl)thio)-3a,4,5,6,7,7a-hexahydro-1H-benzo[d]imidazol-3-ium chloride] showed an IC50 of more than 10 µM.

In turn, `CCCC1CCN(C(=O)CSC2=N[C@@H]3CCCC[C@H]3N2)CC1` (racemic) [TTC-29, (±)-trans-2-((2-oxo-2-(4-propylpiperidin-1-yl)ethyl)thio)-3a,4,5,6,7,7a-hexahydro-1H-benzo[d]imidazol-3-ium chloride] had an IC50 of less than 10 µM.

The compound `O=C(CSC1=N[C@@H]2CCCC[C@H]2N1)N1CCC(c2ccccc2)CC1` (racemic) [TTC-33, (±)-trans-2-((2-oxo-2-(4-phenylpiperidin-1-yl)ethyl)thio)-3a,4,5,6,7,7a-hexahydro-1H-benzo[d]imidazol-3-ium chloride] registered an IC50 of more than 10 µM.

On to `CC(C)(C)OC(=O)N1CCN(C(=O)CSC2=N[C@@H]3CCCC[C@H]3N2)CC1` (racemic) [TTC-08, (±)-trans-2-((2-(4-(tert-butoxycarbonyl)piperazin-1-yl)-2-oxoethyl)thio)-3a,4,5,6,7,7a-hexahydro-1H-benzo[d]imidazol-3-ium chloride], for which the IC50 was more than 10 µM.

In the case of `Cc1ccccc1N1CCN(C(=O)CSC2=N[C@@H]3CCCC[C@H]3N2)CC1` (racemic) [TTC-36, (±)-trans-2-((2-oxo-2-(4-(o-tolyl)piperazin-1-yl)ethyl)thio)-3a,4,5,6,7,7a-hexahydro-1H-benzo[d]imidazol-3-ium chloride], the IC50 is more than 10 µM.

Take `CC(C)(C)C1CCN(C(=O)CSC2=N[C@@H]3CCCC[C@H]3N2)CC1` (racemic) [TTC-31, (±)-trans-2-((2-(4-(tert-butyl)piperidin-1-yl)-2-oxoethyl)thio)-3a,4,5,6,7,7a-hexahydro-1H-benzo[d]imidazol-3-ium chloride]: the half-inhibitory concentration (IC50) was less than 10 µM.

In the case of `O=C(CSC1=N[C@@H]2CCCC[C@H]2N1)Nc1ccccc1` (racemic) [TTC-18, (±)-trans-2-((2-oxo-2-(phenylamino)ethyl)thio)-3a,4,5,6,7,7a-hexahydro-1H-benzo[d]imidazol-3-ium chloride], the IC50 is more than 10 µM.

As to `O=C(CSc1nc2c([nH]1)CCCC2)N1CCOCC1` [TTC-23, 1-morpholino-2-((4,5,6,7-tetrahydro-1H-benzo[d]imidazol-2-yl)thio)ethan-1-one], the IC50 is more than 10 µM.

With `O=C1CN(C(=O)CSC2=N[C@@H]3CCCC[C@H]3N2)CCN1` (racemic) [TTC-17, (±)-trans-2-((2-oxo-2-(3-oxopiperazin-1-yl)ethyl)thio)-3a,4,5,6,7,7a-hexahydro-1H-benzo[d]imidazol-3-ium chloride], the IC50 is more than 10 µM.

In the case of `O=C(CSC1=N[C@@H]2CCCC[C@H]2N1)N1CCSCC1` (racemic) [TTC-05, (±)-trans-2-((2-oxo-2-thiomorpholinoethyl)thio)-3a,4,5,6,7,7a-hexahydro-1H-benzo[d]imidazol-3-ium chloride], the half-inhibitory concentration (IC50) is less than 10 µM.

Regarding `CC(=O)NCC1CCN(C(=O)CSC2=N[C@@H]3CCCC[C@H]3N2)CC1` (racemic) [TTC-35, (±)-trans-2-((2-(4-(acetamidomethyl)piperidin-1-yl)-2-oxoethyl)thio)-3a,4,5,6,7,7a-hexahydro-1H-benzo[d]imidazol-3-ium chloride], the IC50 was less than 10 µM.

As to `O=C(CSC1=N[C@@H]2CCCC[C@H]2N1)N1CCOCC1` (racemic) [TTC-01, (±)-trans-2-((2-morpholino-2-oxoethyl)thio)-3a,4,5,6,7,7a-hexahydro-1H-benzo[d]imidazol-3-ium chloride], the half-inhibitory concentration (IC50) is more than 10 µM.

`O=C(CSC1=N[C@@H]2CCCC[C@@H]2N1)N1CCSCC1` [TTC-11, cis-2-((2-oxo-2-thiomorpholinoethyl)thio)-3a,4,5,6,7,7a-hexahydro-1H-benzo[d]imidazol-3-ium chloride] yielded an IC50 of more than 10 µM.

Regarding `O=C(CSC1=N[C@@H]2CCCC[C@H]2N1)N1CCCCC1` (racemic) [TTC-03, (±)-trans-2-((2-oxo-2-(piperidin-1-yl)ethyl)thio)-3a,4,5,6,7,7a-hexahydro-1H-benzo[d]imidazol-3-ium chloride], the IC50 was more than 10 µM.

`CC1CCN(C(=O)CSC2=N[C@@H]3CCCC[C@H]3N2)CC1` [TTC-26, (3aR,7aR)-2-((4-methylpiperidin-1-yl)-2-oxoethyl)thio)-3a,4,5,6,7,7a-hexahydro-1H-benzo[d]imidazol-3-ium chloride] gave an IC50 of less than 10 µM.

`O=C(O)C1CCN(C(=O)CSC2=N[C@@H]3CCCC[C@H]3N2)CC1` (racemic) [TTC-16, (±)-trans-2-((2-(4-carboxypiperidin-1-yl)-2-oxoethyl)thio)-3a,4,5,6,7,7a-hexahydro-1H-benzo[d]imidazol-3-ium chloride] registered an IC50 of more than 10 µM.

Take `O=C(CSC1=N[C@@H]2CCCC[C@H]2N1)N1CCN(c2ccccc2)CC1` (racemic) [TTC-07, (±)-trans-2-((2-oxo-2-(4-phenylpiperazin-1-yl)ethyl)thio)-3a,4,5,6,7,7a-hexahydro-1H-benzo[d]imidazol-3-ium chloride]: the half-maximal inhibitory concentration (IC50) was more than 10 µM.

`O=C(CSC1=N[C@@H]2CCCC[C@@H]2N1)N1CCN(c2ccccc2)CC1` [TTC-13, cis-2-((2-oxo-2-(4-phenylpiperazin-1-yl)ethyl)thio)-3a,4,5,6,7,7a-hexahydro-1H-benzo[d]imidazol-3-ium chloride] came in with an IC50 of more than 10 µM.

`O=C(CSC1=NCCN1)N1CCOCC1` [TTC-09, 2-((2-morpholino-2-oxoethyl)thio)-4,5-dihydro-1H-imidazol-3-ium chloride] yielded a half-maximal inhibitory concentration (IC50) of more than 10 µM.

The assay is the same for the next values; noted with them: JJN3 cells, 24 hr treatment.
As for `O=C(CSc1nc2ccccc2[nH]1)N1CCOCC1` [TTC-21, 2-((1H-benzo[d]imidazol-2-yl)thio)-1-morpholinoethan-1-one], the “cell death by annexin V/PI” value was “reduced activity”.

With `O=C(CSC1=N[C@@H]2CCCC[C@@H]2N1)N1CCOCC1` [TTC-02, cis-2-((2-morpholino-2-oxoethyl)thio)-3a,4,5,6,7,7a-hexahydro-1H-benzo[d]imidazol-3-ium chloride], the “cell death by annexin V/PI” value is recorded as “does not induce cell death”.

On to `O=C(CSc1ncc[nH]1)N1CCOCC1` [TTC-22, 2-((1H-imidazol-2-yl)thio)-1-morpholinoethan-1-one], for which the “cell death by annexin V/PI” value is on record as “reduced activity”.

Take `O=C(CSc1nc2c([nH]1)CCCC2)N1CCOCC1` [TTC-23, 1-morpholino-2-((4,5,6,7-tetrahydro-1H-benzo[d]imidazol-2-yl)thio)ethan-1-one]: the “cell death by annexin V/PI” value was “reduced activity”.

`O=C(CSC1=N[C@@H]2CCCC[C@H]2N1)N1CCOCC1` (racemic) [TTC-01, (±)-trans-2-((2-morpholino-2-oxoethyl)thio)-3a,4,5,6,7,7a-hexahydro-1H-benzo[d]imidazol-3-ium chloride]: the “cell death by annexin V/PI” value is “induces cell death”.
